From US3935236A, “Aminopropanol substituted isochromanones and phthalides” (Gruppo Lepetit, S.p.A., priority 1973, dated 1976)
Where two headings read alike, the source gives them in different places.

Tests used:
[1] = LD50 os (acute toxicity); conditions: in vivo, po
[2] = target: T1, β-receptors (Canis lupus familiaris, UniProt P79148); test: antagonizing isopropylnoradrenaline induced tachycardia in conscious dogs (i.v.); assay type: in vivo; conditions: dog, iv, read-out: ED50 in antagonizing isopropylnoradrenaline induced tachycardia
T1 construct: tachycardia in conscious dogs; from tissue; host or cells: heart in the living conscious dog (in vivo, i.v. dosing)
T1 sequence (P79148 whole entry): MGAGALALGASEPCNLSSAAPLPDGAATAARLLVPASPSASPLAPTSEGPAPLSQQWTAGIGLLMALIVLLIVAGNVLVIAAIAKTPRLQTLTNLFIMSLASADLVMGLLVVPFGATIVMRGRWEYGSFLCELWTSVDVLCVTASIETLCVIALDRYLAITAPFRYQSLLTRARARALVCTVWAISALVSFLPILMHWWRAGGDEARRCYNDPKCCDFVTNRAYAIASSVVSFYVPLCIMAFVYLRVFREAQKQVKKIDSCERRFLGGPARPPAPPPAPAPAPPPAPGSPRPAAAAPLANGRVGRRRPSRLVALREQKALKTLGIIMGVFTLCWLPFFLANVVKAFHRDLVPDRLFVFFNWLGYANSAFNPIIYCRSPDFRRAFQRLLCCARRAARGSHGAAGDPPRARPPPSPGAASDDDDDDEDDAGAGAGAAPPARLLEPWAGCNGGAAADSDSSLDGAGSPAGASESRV
Excerpt: As a standard compound pronethalol was taken into consideration. Pronethalol, i.e. 2-isopropylamino-1-([…])-ethanol, is a known β-blocking agent.

Structure (SMILES) | LD50 [1] | ED50 [2] | ED50 ([2]; conscious dogs, i.v.)
CC(C)NCC(O)COc1cccc2c1C(=O)OC2.Cl (centres unmarked) [Example 1, 7-(2-Hydroxy-3-isopropylamino-propoxy)-phthalide hydrochloride] | > 500 mg/kg | 0.01 mg/kg | –
CC(C)NCC(O)COc1ccc2c(c1)C(=O)OC2 (centres unmarked) [Example 2, 6-(2-Hydroxy-3-isopropylamino-propoxy)-phthalide] | > 500 mg/kg | – | 0.3 mg/kg
CC(C)(C)NCC(O)COc1cccc2c1COC2=O.Cl (centres unmarked) [Example 8, 4-(2-Hydroxy-3-tert-butylaminopropoxy)-phthalide hydrochloride] | > 500 mg/kg | 0.07 mg/kg | –
COc1cc(OCC(O)CNC(C)(C)C)c2c(c1)C(=O)OC(C)(C)C2.O=C(O)C(=O)O (centres unmarked) [Example 15, 5-(2-Hydroxy-tert-butylamino-propoxy)-7-methoxy-3,3-dimethyl-1-isochromanone oxalate] | > 500 mg/kg | 0.018 mg/kg | –
CCC1Cc2c(OCC(O)CNC(C)(C)C)cc(OC)cc2C(=O)O1.Cl (centres unmarked) [Example 14, 3-Ethyl-5-(2-hydroxy-3-tert-butylamino-propoxy)-7-methoxy-1-isochromanone hydrochloride] | > 500 mg/kg | 0.1 mg/kg | –
CC(C)(C)NCC(O)COc1cccc2c1C(=O)OC2.Cl (centres unmarked) [Example 5, 7-(2-Hydroxy-3-tert-butylamino-propoxy)-phthalide hydrochloride] | > 500 mg/kg | – | –
CC(C)(C)NCC(O)COc1ccc2c(c1)C(=O)OCC2.Cl (centres unmarked) [Example 7, 7-(2-Hydroxy-3-tert-butylamino-propoxy)-1-isochromanone hydrochloride] | > 500 mg/kg | 0.055 mg/kg | –
CC(C)CNCC(O)COc1cccc2c1C(=O)OC2.Cl (centres unmarked) [Example 10, 7-(2-Hydroxy-3-isobutylamino-propoxy)-phthalide hydrochloride] | > 500 mg/kg | 0.1 mg/kg | –
COc1cc(OCC(O)CNC(C)(C)C)c2c(c1)C(=O)OC(C)C2.Cl (centres unmarked) [Example 13, 5-(2-Hydroxy-3-tert-butylamino-propoxy)-7-methoxy-3-methyl-1-isochromanone hydrochloride] | > 500 mg/kg | 0.005 mg/kg | –
CC(C)(C)NCC(O)COc1ccc2c(c1)C(=O)OC2.Cl (centres unmarked) [Example 9, 6-(2-Hydroxy-3-tert-butylamino-propoxy)-phthalide hydrochloride] | > 500 mg/kg | 0.1 mg/kg | –
CC(C)(C)NCC(O)COc1cccc2c1C(=O)OCC2.Cl (centres unmarked) [Example 12, 8-(2-Hydroxy-3-tert-butylamino-propoxy)-1-isochromanone hydrochloride] | > 500 mg/kg | 0.003 mg/kg | –
CC(C)NCC(O)COc1ccc2c(c1)C(=O)OCC2.Cl (centres unmarked) [Example 6, 7-(2-Hydroxy-3-isopropylamino-propoxy)-1-isochromanone hydrochloride] | > 500 mg/kg | 0.1 mg/kg | –
